Measurements published in patent US20240390369A1, “METHODS FOR DETERMINING RESPONSIVENESS TO TYK2 INHIBITORS” (Bristol-Myers Squibb Company, priority 2021, published 2024).
“And” between values parts separate entries of the source, which are not always exact repeats. Equal entries are not always repeated.

Test system: patients with psoriatic arthritis
Test: Phase 2 trial in psoriatic arthritis: PASI75 response at week 16
Type: in vivo, human
Conditions: for Number of subjects: 12 mg QD
Method: In a double-blind Phase 2 trial, 203 patients with psoriatic arthritis were randomized into three groups: deucravacitinib 6 mg once daily (N=70), deucravacitinib 12 mg once daily (N=67), or placebo (N=66). All subjects had active psoriatic arthritis according to the Classification Criteria for Psoriatic Arthritis (CASPAR); for active disease, these criteria required ≥3 tender joint count, ≥3 swollen joint count, and a C-reactive protein level above 3 mg/L. Other inclusion criteria included the following: presence of at least one plaque psoriasis lesion, and prior treatment failure with a non-biologic disease modifying anti-rheumatic drug, a non-steroidal anti-inflammatory drug, or a steroid. With respect to treatment history, approximately 70% of subjects had not received prior treatment with a biologic and were biologic naïve, while up to 30% of subjects had failed or had been intolerant to one TNF-inhibitor (TNF=Tumor necrosis factor, also known as TNFα). Randomization was stratified by prior TNF-inhibitor use (experienced/naïve) and body weight (<90 kg and ≥90 kg).
Clinical measures included the Psoriasis […] (PASI) score for skin psoriasis, American College of Rheumatology 20 (ACR20) response, Psoriatic Arthritis Disease Activity Score (PASDAS), Health Assessment Questionnaire-Disability Index (HAQ-DI), and Disease Activity Score 28 CRP (DAS28). To evaluate the predictive value of different protein measurements for the clinical response to deucravacitinib, baseline protein concentrations for responders and non-responders, as defined by ACR20 or PASI75 at week 16, were compared for each arm (placebo, 6 mg deucravacitinib once-daily, and 12 mg deucravacitinib once-daily).
In addition, a logistic regression model was fit, to determine whether baseline disease score (dichotomized by the median baseline score, into baseline score high and baseline score low groups) was associated with response status. The model generated an odds ratio for each dosed arm versus placebo, in baseline score high and baseline score low groups.
Boxplots for baseline protein level by response were generated with a horizontal line indicating the median protein level at baseline. For each treatment arm, a two-sample t-test was performed to test whether mean baseline serum protein level was different in responders versus non-responders. A Wilcoxon rank sum test (Mann-Whitney U test) was also performed to evaluate the difference in median serum protein level between responders and non-responders. Further, barplots of ACR20 and PASI75 response rate at week 16 for each treatment arm were generated for all subjects (protein level high and protein level low subjects, dichotomized according to median baseline level). Line plots of ACR20 and PASI75 response rate over time for each treatment arm were generated for protein level high and protein level low groups. Logistic regression models were also fit to evaluate associations between baseline protein levels and clinical outcome.
For certain analyses described herein, patients were dichotomized by median values (e.g., of the proteins listed above or other measures) into “high” and “low” groups, such that the high group had values above the median and the low group had values less than or equal to the median.
In addition, logistic regression models were fit for response measures ACR20 and PASI75, to generate the odds ratio of each of the deucravacitinib treatment arms versus placebo, in BD2-high and BD2-low groups. The following logistic regression models were used: • For ACR20 response status: ACR20 (Y/N)=treatment arm+BD2 group+treatment arm*BD2 group+TNF-inhibitor use+baseline weight (continuous). • For PASI75 response status: PASI75 (Y/N)=treatment arm+BD2 group+treatment arm*BD2 group+TNF-inhibitor use+baseline weight (continuous). […]

## [2H]C([2H])([2H])NC(=O)c1nnc(NC(=O)C2CC2)cc1Nc1cccc(-c2ncn(C)n2)c1OC [deucravacitinib, 6-(cyclopropanecarboxamido)-4-((2-methoxy-3-(1-methyl-1H-1,2,4-triazol-3-yl)phenyl)amino)-N-(methyl-d3)pyridazine-3-carboxamide]
PASI75 responder at week 16, above median baseline IL-19 level
  Number of subjects: 20
PASI75 responder at week 16, below baseline PASI median 6.6
  Number of subjects: 11
PASI75 responder at week 16, below median baseline BD2 level
  Number of subjects: 19
PASI75 responder at week 16, below median baseline IL-17A level
  Number of subjects: 12
PASI75 responder at week 16, below median baseline IL-19 level
  Number of subjects: 10
PASI75 responder, BD2-high-PASI-high
  Number of subjects: 13
PASI75 responder, BD2-high-PASI-low
  Number of subjects: 7
PASI75 responder, BD2-low-PASI-high
  Number of subjects: 6
PASI75 responder, BD2-low-PASI-low
  Number of subjects: 4
PASI75 responder, IL-17A-high-PASI-high
  Number of subjects: 10
PASI75 responder, IL-17A-high-PASI-low
  Number of subjects: 8
PASI75 responder, IL-17A-low-PASI-high
  Number of subjects: 9
PASI75 responder, IL-17A-low-PASI-low
  Number of subjects: 3
PASI75 responder, IL-19-high-PASI-high
  Number of subjects: 12
PASI75 responder, IL-19-high-PASI-low
  Number of subjects: 8
PASI75 responder, IL-19-low-PASI-high
  Number of subjects: 7
PASI75 responder, IL-19-low-PASI-low
  Number of subjects: 3
All patients, 6 mg QD vs placebo, not adjusted for baseline disease activity
  Odds Ratio, PASI75 response status: 2.88
All patients, 6 mg QD vs placebo, week 16
  Odds Ratio for PASI75 response: 2.88
All patients, 6 mg QD vs placebo, week 16, adjusted for baseline PASI score
  Odds Ratio, PASI75 response status: 3.052 and 3.05
All patients, 12 mg QD vs placebo, not adjusted for baseline disease activity
  Odds Ratio, PASI75 response status: 5.781 and 5.78
All patients, 12 mg QD vs placebo, week 16
  Odds Ratio for PASI75 response: 5.781
All patients, 12 mg QD vs placebo, week 16, adjusted for baseline PASI score
  Odds Ratio, PASI75 response status: 6.494 and 6.49
All patients, deucravacitinib treatment arms combined vs placebo, week 16
  Odds Ratio for PASI75 response: 3.998
All patients, treatment arms combined vs placebo
  Odds Ratio, PASI75 response status: 3.998
BD2-high group, 6 mg QD and 12 mg QD vs placebo arm (FIG. 7)
  PASI75 response rate at week 16: higher in both 6 mg QD and 12 mg QD treatment arms compared to the placebo arm
BD2-high-PASI-high, 6 mg QD vs placebo, week 16
  Odds Ratio for PASI75 response: 29.67
BD2-high-PASI-high, 12 mg QD vs placebo, week 16
  Odds Ratio for PASI75 response: 43.084
BD2-high-PASI-low, 6 mg QD vs placebo, week 16
  Odds Ratio for PASI75 response: 2.331
BD2-high-PASI-low, 12 mg QD vs placebo, week 16
  Odds Ratio for PASI75 response: 10.995
BD2-low-PASI-high, 6 mg QD vs placebo, week 16
  Odds Ratio for PASI75 response: 0.825
BD2-low-PASI-high, 12 mg QD vs placebo, week 16
  Odds Ratio for PASI75 response: 7.787
BD2-low-PASI-low, 6 mg QD vs placebo, week 16
  Odds Ratio for PASI75 response: 1.093
BD2-low-PASI-low, 12 mg QD vs placebo, week 16
  Odds Ratio for PASI75 response: 0.967
BD2 high (baseline above median 9,265 ng/L), 6 mg QD vs placebo, week 16
  Odds Ratio for PASI75 response: 10.905
BD2 high (baseline above median 9,265 ng/L), 12 mg QD vs placebo, week 16
  Odds Ratio for PASI75 response: 24.118
BD2 high, treatment arms combined vs placebo, week 16
  Odds Ratio for PASI75 response: 15.415
BD2 low, 6 mg QD vs placebo, week 16
  Odds Ratio for PASI75 response: 0.938
BD2 low, 12 mg QD vs placebo, week 16
  Odds Ratio for PASI75 response: 1.695
BD2 low, treatment arms combined vs placebo, week 16
  Odds Ratio for PASI75 response: 1.274
Baseline PASI high (above median 6.6), 6 mg QD vs placebo, week 16
  Odds Ratio for PASI75 response: 6.94 and 6.937
Baseline PASI high (above median 6.6), 12 mg QD vs placebo, week 16
  Odds Ratio for PASI75 response: 15.75
Baseline PASI low (at or below median 6.6), 6 mg QD vs placebo, week 16
  Odds Ratio for PASI75 response: 1.26 and 1.258
Baseline PASI low (at or below median 6.6), 12 mg QD vs placebo, week 16
  Odds Ratio for PASI75 response: 2.454
CRP high, 6 mg QD vs placebo
  Odds Ratio, PASI75 response status: 3.54
CRP high, 12 mg QD vs placebo
  Odds Ratio, PASI75 response status: 9.78
CRP high, treatment arms combined vs placebo
  Odds Ratio, PASI75 response status: 5.405
CRP level above median and baseline PASI score above median, 6 mg QD vs placebo, week 16
  Odds Ratio for PASI75 response: 18.381
CRP low, 6 mg QD vs placebo
  Odds Ratio, PASI75 response status: 2.12
CRP low, 12 mg QD vs placebo
  Odds Ratio, PASI75 response status: 3.72
CRP low, treatment arms combined vs placebo
  Odds Ratio, PASI75 response status: 2.840
CRP-high-PASI-high, 6 mg QD vs placebo
  Odds Ratio, PASI75 response status: 18.381
